This note sets out measurements from PubChem BioAssay (NCI).

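Protocol summary: plate cells (96-well), add compound at 5 concentrations, incubate 48 h, interpolate endpoints linearly. The concentration for full growth arrest is given as TGI.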

Among the test systems are DU-145 prostate; HCC-2998 colon; HL-60(TB) leukemia; HOP-62 NSCLC; KM12 colon; LOX IMVI melanoma; MOLT-4 leukemia; NCI-H460 lung; OVCAR-3 ovarian; U251 CNS.
What all share (experiment): DTP human tumour cell line panel, 48 h

In general, TGI refers to the concentration giving total growth inhibition. A low value points to greater sensitivity of the cells. Regarding `CC(=O)Nc1ccc(NCC(=O)Nn2cnc3ccc(S(=O)(=O)Nc4ccc(NC(C)=O)cc4)cc3c2=O)cc1`, the total growth inhibition concentration (TGI) with DU-145 prostate, with HCC-2998 colon, in the experiment on HL-60(TB) leukemia, in the experiment on HOP-62 NSCLC, with KM12 colon and in the experiment with LOX IMVI melanoma was more than 100 µM in each case. The TGI in the experiment with MOLT-4 leukemia, in the experiment with NCI-H460 lung, in the experiment with OVCAR-3 ovarian and in the experiment with U251 CNS was more than 100 µM each time.

As for `CC1=CC(=O)CC(C)(C)C1/C=C/C(C)=C/C=C/C(C)=C/C=C/C=C(C)/C=C/C=C(C)/C=C/C1C(C)=CC(=O)CC1(C)C` (stereo not given), the TGI in the experiment on DU-145 prostate is more than 100 µM; with HCC-2998 colon, more than 100 µM; with HL-60(TB) leukemia, more than 100 µM; with HOP-62 NSCLC, more than 100 µM; in the experiment on KM12 colon it was more than 100 µM; with LOX IMVI melanoma, 85.6 µM. The TGI in the experiment on MOLT-4 leukemia, in the experiment with NCI-H460 lung, in the experiment on OVCAR-3 ovarian and in the experiment on U251 CNS was more than 100 µM each time.

As for `c1ccc2c(Cc3[nH]c4ccccc4c3Cc3c[nH]c4ccccc34)c[nH]c2c1`, the TGI with DU-145 prostate turned out to be 4.48 µM; with HCC-2998 colon, 3.26 µM; in the experiment on HL-60(TB) leukemia, 4.58 µM; in the experiment with HOP-62 NSCLC it was 12.7 µM; in the experiment with KM12 colon it was 4.84 µM; in the experiment with LOX IMVI melanoma, 5.57 µM. In addition, the TGI was 12 µM in the experiment on MOLT-4 leukemia, 4.17 µM with NCI-H460 lung, 9.68 µM in the experiment on OVCAR-3 ovarian and 9.78 µM in the experiment on U251 CNS.

Consider `CNNC1=NS(=O)(=O)c2cc(C#N)c(Cl)cc2S1`, for which the TGI in the experiment on DU-145 prostate, in the experiment on HCC-2998 colon, in the experiment on HL-60(TB) leukemia, in the experiment on HOP-62 NSCLC, in the experiment with KM12 colon and with LOX IMVI melanoma was more than 10 µM throughout. For the same molecule, the TGI in the experiment on MOLT-4 leukemia, in the experiment on NCI-H460 lung, with OVCAR-3 ovarian and with U251 CNS was more than 10 µM in each case.

As for `COc1ccc(N=NC(=O)NC(Cc2ccccc2)C(=O)O)cc1` (stereo not given), the TGI in the experiment on DU-145 prostate, in the experiment on HCC-2998 colon, in the experiment on HL-60(TB) leukemia, in the experiment on HOP-62 NSCLC, with KM12 colon and in the experiment on LOX IMVI melanoma was more than 100 µM each time. In addition, the TGI with MOLT-4 leukemia, in the experiment on NCI-H460 lung, in the experiment with OVCAR-3 ovarian and with U251 CNS was more than 100 µM throughout.

As to `CC(NC(=O)/C(=C/c1ccccc1)NC(=O)c1ccccc1)C(=O)O` (stereo not given), the TGI in the experiment on DU-145 prostate, with HCC-2998 colon, in the experiment on HL-60(TB) leukemia, with HOP-62 NSCLC, in the experiment with KM12 colon and with LOX IMVI melanoma was more than 100 µM each time. Also, the TGI in the experiment with MOLT-4 leukemia, in the experiment with NCI-H460 lung, with OVCAR-3 ovarian and in the experiment with U251 CNS was more than 100 µM throughout.

As for `CC(=O)C(=[N+]=[N-])C(=O)N1CCOC1=O`, the TGI with DU-145 prostate, in the experiment on HCC-2998 colon, in the experiment with HL-60(TB) leukemia, with HOP-62 NSCLC, in the experiment with KM12 colon and with LOX IMVI melanoma was more than 10 µM throughout. Also, the TGI with MOLT-4 leukemia, with NCI-H460 lung, in the experiment with OVCAR-3 ovarian and in the experiment on U251 CNS was more than 10 µM in each case.

`Cc1cc(S(=O)(=O)Nc2n[nH]c(Nc3ccc(Cl)cc3)n2)c(S)cc1Cl`: the TGI in the experiment on DU-145 prostate, in the experiment with HCC-2998 colon, with HL-60(TB) leukemia, in the experiment on HOP-62 NSCLC, with KM12 colon and in the experiment on LOX IMVI melanoma was more than 100 µM in each case. Besides, the TGI in the experiment on MOLT-4 leukemia, in the experiment with NCI-H460 lung, in the experiment with OVCAR-3 ovarian and in the experiment with U251 CNS was more than 100 µM each time.

For `O=c1ccn(CC2(CO)CCC2)c(=O)[nH]1`, the concentration for total growth inhibition (TGI) with DU-145 prostate, with HCC-2998 colon, with HL-60(TB) leukemia, in the experiment on HOP-62 NSCLC, in the experiment on KM12 colon and in the experiment with LOX IMVI melanoma was more than 100 µM each time. Further, the TGI in the experiment with MOLT-4 leukemia, in the experiment with NCI-H460 lung, in the experiment on OVCAR-3 ovarian and with U251 CNS was more than 100 µM in each case.

Take `Cc1ccc(S(=O)(=O)NC(=O)NCCc2cnc[nH]2)cc1`: the concentration for total growth inhibition (TGI) in the experiment with DU-145 prostate, in the experiment with HCC-2998 colon, with HL-60(TB) leukemia, in the experiment with HOP-62 NSCLC, in the experiment with KM12 colon and with LOX IMVI melanoma was more than 100 µM each time. Also, the TGI with MOLT-4 leukemia, in the experiment on NCI-H460 lung, in the experiment on OVCAR-3 ovarian and in the experiment on U251 CNS was more than 100 µM throughout.

Regarding `N#Cc1cc(C#N)c(N)nc1N`, the TGI in the experiment on DU-145 prostate, with HCC-2998 colon, in the experiment on HL-60(TB) leukemia, in the experiment with HOP-62 NSCLC, in the experiment with KM12 colon and with LOX IMVI melanoma was more than 100 µM in each case. For the same molecule, the TGI with MOLT-4 leukemia, in the experiment with NCI-H460 lung, in the experiment on OVCAR-3 ovarian and in the experiment on U251 CNS was more than 100 µM throughout.
